Experimental data published in patent US10513529B2, “1,2,4-triazolo-[3,4-b]-1,3,4-thiadiazole derivatives” (GALENICA S.A., priority 2016, dated 2019).

What was measured:
[1] = system: all 9 human cancer cell lines; assay: MTT cytostatic-cytotoxic activity, all 9 human cancer cell lines; assay type: cell-based; conditions: for IC50: Homo sapiens, read-out: (cytotoxic); for GI50: in all 9 human cancer cell lines, read-out: IG50 (cytostatic)
[2] = in vivo; conditions: both sexes, mouse, in vivo, ip; C57BI/6 mice, acute toxicity
Description: The acute toxicity of the compounds was assessed from lethality by testing different concentrations, starting at 100mg/kg. […] For intraperitoneal (i.p.) treatment, stock solutions of the tested compounds were prepared immediately before use. They were suspended in corn oil in the desired concentration following initial dissolution in 10% dimethylsulfoxide (DMSO). C57BI/6 male and female were used for toxicity studies. Mice were kept under conditions of constant temperature and humidity in sterile cages with water and food.

[3] = system: A-549 human lung carcinoma cell line; assay: MTT cytostatic-cytotoxic activity, A-549; assay type: cell-based; conditions: A-549, 48 h treatment
[4] = system: MCF-7 human breast cancer cell line; assay: MTT cytostatic-cytotoxic activity, MCF-7; assay type: cell-based; conditions: MCF-7, 48 h treatment
[5] = system: OVCAR-3 human ovarian cancer cell line; assay: MTT cytostatic-cytotoxic activity, OVCAR-3; assay type: cell-based; conditions: OVCAR-3, 48 h treatment
Description: (§1) SKOV-3 (SKOV-3) (ATCC HTB 77) and OVCAR-3 (ATCC® HTB-161™)
(§2) Human ovarian adenocarcinoma cells, which are grown easily in monolayer culture with epithelial-like morphology. SKOV-3 are resistant to tumor necrosis factor (TNF) and to other cytotoxic drugs such as cisplatin, and adriamycin, while OVCAR-3 are resistant to adriamycin, cisplatin and melphalan. These cell lines express androgens, estrogens and progesterone receptors. When SKOV-3 or OVCAR-3 cells are subcutaneously implanted in nude mice, SCID mice, a moderately differentiated tumor develops, and the resulting model resembles primary ovarian adenocarcinoma in humans.
(§3) All cancer cell lines are stored in a liquid nitrogen tank in 2.5 ml cryovials (Corning-Costar, Cambridge, Mass.). DMSO (dimethylsulfoxide) act as a cryoprotectant and is added to prevent the formation of ice crystals which may lyse the cells. The Cells were grown as monolayer cultures in T-75 flasks (Corning-Costar, Cambridge, Mass.) and maintained at 37° C. in 5% CO2 incubator & 100% relative humidity. The cultures medium used are McCoy's 5a Medium, supplemented with 10% fetal bovine serum (FBS, Gibco) and 1% antibiotics (100 IU/ml penicillin/100 µg/ml streptomycin), sterilized by filtration (Corning-Costar filter, diameter 0.2 μm, RPMI-1640 and 50% RPMI-1640 (Catalog No 30-2001) plus 50% Mammary Epithelial Growth Medium (MEGM), supplemented with 10% fetal bovine serum (FBS, Gibco) and 1% antibiotics (100 IU/ml penicillin/100 μg/ml streptomycin). The passage is performed every 3-4 to days as follows: Cells are washed with sterile PBS (Phosphate buffered saline): 8 g/l NaCl, 0,2 g/l KCl, 1,15 g/l Na2HPO4καl 0,2 g/l KH2PO4. pH:7,4), add 2-3 ml 0.05% trypsin (Gibco 1:250) and 0.02% EDTA to cover the monolayer and incubate the flask at 3TC for 5-10 minutes. Trypsin-EDTA, is used mainly to detach the cells from the flask and prepare a single cell suspension. Finally, the number of cells can be determined by direct counting using a Neubauer chamber and cell viability is determined by staining the cells with trypan blue.
(§4) In the experimental study the in vitro effect of the compound type (I) was evaluated against ovarian cancer cell lines UWB1.289, UWB1.289+BRCA1 Kai SKOV-3.The cells were plated in 96-well plate (MTP) at a density of 1×10^4cells/m1 per well and maintained for 72 h at 3TC in a 5% CO2 incubator and grown as monolayers. The selection of the initial number of cells was made according to the rate of proliferation of the cell line, in order the cells throughout the experiment are in an exponential (log) growth phase. After 24 hours, cells were treated with 1-100 μmol/l of the tested compounds for 48 h. Experiments were carried out using triplicate wells. The viability of cultured cells was estimated by an (3-(4,5-imethylthiazol-2-yl)-2,5-diphenyltetrazolium bromide (MTT) metabolic assay as described previously (Finlay G J, Wilson W R and Baguley B C: Comparison of in vitro activity of cytotoxic drugs towards human carcinoma and leukaemia cell lines. Eur J Cancer Clin Oncol 22: 655-662, 1986; Alley M C, Scudiero D A, Monks A, Hursey M L, Czerwinski M J, Fine D L, et al. Feasibility of drug screening with panels of human tumor cell lines using a microculture tetrazolium assay. Cancer Res 1988; 48:589-601). MTT (Sigma, St Louis, Mo., USA) was dissolved in PBS in a concentration of 5 mg/ml, filter sterilized, and stored at 4° C. MTT (50 μl of stock solution) was added to each culture and incubated for 3 h at 3TC to allow metabolization. Formazan crystals were solubilized by DMSO (100 μl). Absorbance of the converted dye was measured at a wavelength of 540nm on ELISA reader (BioTek, Winooski, Vt., USA).
(§5) GI50: The mean concentration that causes 50% inhibition of cell growth (Growth Inhibition 50%). The calculation of the value is based on the formula: (Tt72x)−(Ct24)/(Ct72)-(Ct24)×100=50
(§6) TGI: The mean concentration that causes 100% inhibition of cell growth (Total Growth Inhibition). […]

[6] = system: SKOV-3 human ovarian cancer cell line; assay: MTT cytostatic-cytotoxic activity, SKOV-3; assay type: cell-based; conditions: SKOV-3, 48 h treatment
Description: as §1, §2, §3, §4, §5, §6

[7] = system: UWB1.289 + BRCA1 human ovarian cancer cell line; assay: MTT cytostatic-cytotoxic activity, UWB1.289+BRCA1; assay type: cell-based; conditions: UWB1.289+BRCA1, 48 h treatment
Description: Human ovarian adenocarcinoma cells, derived from UBWB1,289, in which the presence of the BRCA1 gene has been restored. […] They are not susceptible to ionizing radiation and radioimmune chemical agents (e.g., alkylating agents). Also, UWB1.289 cells have mutated the p53 tumor suppressor gene, and are positive for the expression of cytokeratin 7 (CK-7), calretinin and Wilms' tumor protein (WT).
as §3, §4, §5
(§7) TGI: The mean concentration that causes 100% inhibition of cell growth (Total Growth Inhibition). The value is calculated according to the formula: (Tt72x)−(Ct24)/(Ct72)−(Ct24)×100=0
(§8) IC50: The mean concentration that kills 50% of the cells (Inhibition Concentration 50%). The value is calculated according to the formula: (Tt72x)−(Ct24)/(Ct24)×100=[…]

[8] = system: T-47D human breast cancer cell line; assay: MTT cytostatic-cytotoxic activity, T-47D; assay type: cell-based; conditions: 48 h treatment
[9] = system: UWB1.289 human ovarian cancer cell line (mutant BRCA1); assay: MTT cytostatic-cytotoxic activity, UWB1.289; assay type: cell-based; conditions: UWB1.289, 48 h treatment
Description: Also, UWB1.289 cells have mutated the p53 tumor suppressor gene and positive Wilms' tumor protein (WT) expression, have no functional BRCA1 gene and are positive for the expression of cytokeratin 7 (CK-7), calretinin and Wilms' tumor protein (WT). Finally they are sensitive to ionizing radiation.
as §3, §4, §5, §7, §8

[10] = system: PC-3 human hormone-resistant prostate cancer cell line; assay: MTT cytostatic-cytotoxic activity, PC-3; assay type: cell-based; conditions: PC-3, 48 h treatment
[11] = system: MOLT-4 human acute T-leukemia cell line; assay: MTT cytostatic-cytotoxic activity, MOLT-4; assay type: cell-based; conditions: MOLT-4, 48 h treatment

COc1cc(Cc2nnc3sc(CCCc4ccccc4)nn23)c(S(=O)(=O)N(C)C)cc1OC [TS52, 3-[2-(N,N-dimethylsulfamoyl)-4,5-dimethoxybenzyl]-6-(3-phenylpropyl)-1,2,4-triazolo[3,4-b]-1,3,4-thiazole]
IC50 [1]: > 100 µM
GI50 [1]: < 100 µM
LD50 [2]: > 500 mg/kg

COc1cc(Cc2nnc3sc(/C=C/c4cccc(F)c4)nn23)c(S(=O)(=O)N(C)C)cc1OC [TS29, 3-[2-(N,N-dimethylsulfamoyl)-4,5dimethoxybenzyl]-6-(E)-3-fluorostyryl-1,2,4-triazolo[3,4-b]-1,3,4-thiazole]
GI50 [3]: 30 µM
TGI [3]: 71 µM
IC50 ([3]; kills 50% of the cells): > 100 µM
GI50 [4]: 66 µM
TGI [4]: >100 µM
IC50 ([4]; kills 50% of the cells): > 100 µM
GI50 [5]: 74 µM
TGI [5]: >100 µM
IC50 ([5]; kills 50% of the cells): > 100 µM
GI50 [6]: 45 µM
TGI [6]: 84 µM
IC50 ([6]; kills 50% of the cells): > 100 µM
GI50 [7]: 10 µM
TGI [7]: 64 µM
IC50 ([7]; kills 50% of the cells): > 100 µM
GI50 [8]: 48 µM
TGI [8]: 86 µM
IC50 ([8]; kills 50% of the cells): > 100 µM
GI50 [9]: 10 µM
TGI [9]: 67 µM
IC50 ([9]; kills 50% of the cells): > 100 µM
GI50 [10]: 85 µM
TGI [10]: >100 µM
IC50 ([10]; kills 50% of the cells): > 100 µM
GI50 [11]: 61 µM
TGI [11]: >100 µM
IC50 ([11]; kills 50% of the cells): > 100 µM

COc1cccc(Cc2nn3c(Cc4cc(OC)c(OC)cc4S(=O)(=O)N(C)C)nnc3s2)c1 [TS58, 3-[2-(N,N-dimethylsulfamoyl)-4,5-dimethoxybenzyl]-6-(3-methoxybenzyl)-1,2,4-triazolo[3,4-b]-1,3,4-thiazole]
IC50 [1]: > 100 µM
GI50 [1]: < 100 µM
LD50 [2]: > 500 mg/kg

COc1ccc(Cc2nn3c(Cc4cc(OC)c(OC)cc4S(=O)(=O)N(C)C)nnc3s2)cc1OC [TS51, 3-[2-(N,N-dimethylsulfamoyl)-4,5-dimethoxybenzyl]-6-(3,4-dimethoxybenzyl)-1,2,4-triazolo[3,4-b]-1,3,4-thiazole]
IC50 [1]: > 100 µM
GI50 [1]: < 100 µM
LD50 [2]: > 500 mg/kg

COc1cc(Cc2nnc3sc(-c4cccc(N)c4)nn23)c(S(=O)(=O)N(C)C)cc1OC [TS70, 3-[2-(N,N-dimethylsulfamoyl)-4,5-dimethoxybenzyl]-6-(3-aminophenyl)-1,2,4-triazolo[3,4-b]-1,3,4-thiazole]
IC50 [1]: > 100 µM
GI50 [1]: < 100 µM
LD50 [2]: > 500 mg/kg

COc1cc(Cc2nnc3sc(-c4ccc([N+](=O)[O-])cc4Cl)nn23)c(S(=O)(=O)N(C)C)cc1OC [TS61, 3-[2-(N,N-dimethylsulfamoyl)-4,5-dimethoxybenzyl]-6-(2-chloro-4-nitrophenyl)-1,2,4-triazolo[3,4-b]-1,3,4-thiazole]
IC50 [1]: > 100 µM
GI50 [1]: < 100 µM
LD50 [2]: > 500 mg/kg

COc1cc(Cc2nnc3sc(COc4ccccc4)nn23)c(S(=O)(=O)N(C)C)cc1OC [TS56, 3-[2-(N,N-dimethylsulfamoyl)-4,5-dimethoxybenzyl]-6-phenoxymethyl-1,2,4-triazolo[3,4-b]-1,3,4-thiazole]
IC50 [1]: > 100 µM
GI50 [1]: < 100 µM
LD50 [2]: > 500 mg/kg

COc1ccc(CCc2nn3c(Cc4cc(OC)c(OC)cc4S(=O)(=O)N(C)C)nnc3s2)cc1 [TS55, 3-[2-(N,N-dimethylsulfamoyl)-4,5-dimethoxybenzyl]-6-[2-(4-methoxyphenyl)ethyl]-1,2,4-triazolo[3,4-b]-1,3,4-thiazole]
IC50 [1]: > 100 µM
GI50 [1]: < 100 µM
LD50 [2]: > 500 mg/kg

COc1cc(Cc2nnc3sc(-c4cc(OC)c(OC)c(OC)c4)nn23)c(S(=O)(=O)N(C)C)cc1OC [TS59, 3-[2-(N,N-dimethylsulfamoyl)-4,5-dimethoxybenzyl]-6-(3,4,5-trimethoxyphenyl)-1,2,4-triazolo[3,4-b]-1,3,4-thiazole]
IC50 [1]: > 100 µM
GI50 [1]: < 100 µM
LD50 [2]: > 500 mg/kg

COc1ccccc1CCc1nn2c(Cc3cc(OC)c(OC)cc3S(=O)(=O)N(C)C)nnc2s1 [TS54, 3-[2-(N,N-dimethylsulfamoyl)-4,5-dimethoxybenzyl]-6-[2-(2-methoxyphenyl)ethyl]-1,2,4-triazolo[3,4-b]-1,3,4-thiazole]
IC50 [1]: > 100 µM
GI50 [1]: < 100 µM
LD50 [2]: > 500 mg/kg
